Measured values from patent publication US11136313B2, “Compounds, compositions, and methods for modulating CFTR” (Proteostasis Therapeutics, Inc., priority 2015, dated 2021).

What follows are compounds tested against T1, ΔF508-CFTR (Homo sapiens, UniProt P13569, DEL508-508) (assay: hBE equivalent current (Ieq) assay: AUC of equivalent chloride current after forskolin/VX-770 in primary lung epithelial cells homozygous for ΔF508). Conditions: relative to CFTR amplifier (Compound A)+VX-809 (3 uM), compound at 10 uM and Compound A at 3 uM, 24 h treatment.
T1 construct: Primary lung epithelial cells homozygous for the Cystic Fibrosis-causing ΔF508 mutation were differentiated for a minimum of 4 weeks; endogenous in cells; host or cells: primary lung epithelial cells (hBE) homozygous for ΔF508, differentiated at an air-liquid interface
T1 sequence (P13569 with tags, fused parts or gaps DEL508-508): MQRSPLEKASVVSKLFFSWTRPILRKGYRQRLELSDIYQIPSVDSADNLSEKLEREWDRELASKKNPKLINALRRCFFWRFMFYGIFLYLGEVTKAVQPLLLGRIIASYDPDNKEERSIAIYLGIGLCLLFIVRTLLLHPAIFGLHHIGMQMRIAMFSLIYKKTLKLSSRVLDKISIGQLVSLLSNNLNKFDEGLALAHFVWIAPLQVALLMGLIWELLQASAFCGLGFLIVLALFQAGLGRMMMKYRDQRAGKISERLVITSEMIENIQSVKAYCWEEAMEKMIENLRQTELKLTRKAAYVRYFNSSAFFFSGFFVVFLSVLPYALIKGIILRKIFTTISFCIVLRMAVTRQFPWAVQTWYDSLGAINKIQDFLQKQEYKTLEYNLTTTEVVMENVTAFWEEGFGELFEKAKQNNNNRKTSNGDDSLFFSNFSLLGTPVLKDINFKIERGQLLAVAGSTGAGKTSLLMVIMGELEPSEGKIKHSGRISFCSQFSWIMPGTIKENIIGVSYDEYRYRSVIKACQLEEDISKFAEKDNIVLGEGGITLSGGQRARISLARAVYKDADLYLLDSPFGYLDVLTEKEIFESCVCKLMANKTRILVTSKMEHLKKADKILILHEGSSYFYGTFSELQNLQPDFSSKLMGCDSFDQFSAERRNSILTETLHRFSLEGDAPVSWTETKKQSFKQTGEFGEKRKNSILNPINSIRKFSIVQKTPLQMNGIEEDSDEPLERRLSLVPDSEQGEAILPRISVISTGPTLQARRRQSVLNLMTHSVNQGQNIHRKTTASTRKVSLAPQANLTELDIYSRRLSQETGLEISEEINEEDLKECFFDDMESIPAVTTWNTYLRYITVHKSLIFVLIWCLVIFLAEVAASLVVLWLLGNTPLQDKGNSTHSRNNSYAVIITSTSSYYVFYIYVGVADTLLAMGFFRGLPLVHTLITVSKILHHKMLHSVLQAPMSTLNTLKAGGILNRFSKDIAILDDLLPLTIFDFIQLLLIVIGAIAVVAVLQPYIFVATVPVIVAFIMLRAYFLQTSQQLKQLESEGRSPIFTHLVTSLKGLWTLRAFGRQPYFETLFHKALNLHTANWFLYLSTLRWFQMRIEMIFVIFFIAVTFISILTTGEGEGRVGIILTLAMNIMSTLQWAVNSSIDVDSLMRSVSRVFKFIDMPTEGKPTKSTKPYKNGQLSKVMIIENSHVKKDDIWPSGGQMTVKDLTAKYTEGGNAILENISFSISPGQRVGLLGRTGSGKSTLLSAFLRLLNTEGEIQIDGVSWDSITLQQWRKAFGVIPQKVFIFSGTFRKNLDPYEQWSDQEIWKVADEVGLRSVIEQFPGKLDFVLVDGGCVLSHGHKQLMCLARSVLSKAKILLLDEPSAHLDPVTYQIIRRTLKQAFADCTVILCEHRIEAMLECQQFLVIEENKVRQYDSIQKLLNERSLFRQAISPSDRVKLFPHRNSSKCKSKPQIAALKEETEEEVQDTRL
Type: cell-based
Method: ii. hBE Equivalent Current (Ieq) Assay
Primary lung epithelial cells homozygous for the Cystic Fibrosis-causing ΔF508 mutation were differentiated for a minimum of 4 weeks in an air-liquid interface on Costar 24 well HTS filter plates prior to the equivalent current (Ieq) measurements. Cells were apically mucus-washed for 30 minutes 24 h prior to treatment with compounds. The basolateral media was removed and replaced with media containing the compound of interest diluted to its final concentration from DMSO stocks. Treated cells were incubated at 37° C. and 5% CO2 for 24 hours. At the end of the treatment period, the media was changed to the Ieq experimental solution for 2 hours before the experiment and plates are maintained in a CO2-free incubator during this period. The plates containing the cells were then placed in pre-warmed heating blocks at 36° C.±0.5 for 15 minutes before measurements are taken. The transepithelial voltage (VT) and conductance (GT) were measured using a custom 24 channel current clamp (TECC-24) with 24 well electrode manifold. The Ieq assay measurements were made following additions with standardized time periods: • 1. The baseline VT and GT values were measured for approximately 20 minutes. • 2. Benzamil was added to block ENaC for 15 minutes. • 3. Forskolin plus VX-770 were added to maximally activate ΔF508-CFTR for 27 minutes. • 4. Bumetanide was added to inhibit the NaK2Cl cotransporter and shut-off secretion of chloride.
The activity data captured was the area under the curve (AUC) for the traces of the equivalent chloride current. The AUC was collected from the time of the forskolin/VX-770 addition until the inhibition by bumetanide addition. Correction in response to compound treatment was scored as the increase in the AUC for compound-treated samples over that of vehicle-treated samples.
(+ indicates activity<50% of an CFTR amplifier (Compound A)+VX-809 (3 uM) with compound at 10 uM and Compound A at 3 uM; ++ indicates activity>50% of CFTR amplifier+VX-809 (3 uM) with compound at 10 uM and Compound A at 3 uM.
For `CCc1ccc(OC(CC)c2ccccc2)c2c(C(=O)O)cc(-c3csc4ccccc34)nc12` (stereo in doubt) [Compound 185, 2-(1-Benzothiophen-3-yl)-8-ethyl-5-[(1S)-1-phenylpropoxy]quinoline-4-carboxylic acid], the Activity was “++ (activity>50% of CFTR amplifier+VX-809 (3 uM) with compound at 10 uM and Compound A at 3 uM)”. In the case of `Cc1cc(Cl)cc2c(C(=O)O)cc(-c3cc4ccccc4s3)nc12` [Compound 1], the Activity is reported as “+ (activity<50% of an CFTR amplifier (Compound A)+VX-809 (3 uM) with compound at 10 uM and Compound A at 3 uM)”. `Cc1cc(C)c2nc(-c3nc4ccccc4s3)cc(C(=O)O)c2c1` [Compound 2, 2-(1,3-Benzothiazol-2-yl)-6,8-dimethylquinoline-4-carboxylic Acid] was tested, and the Activity was “+ (activity<50% of an CFTR amplifier (Compound A)+VX-809 (3 uM) with compound at 10 uM and Compound A at 3 uM)”. With `Cc1cc(C)c2nc(-c3nc4ccccc4o3)cc(C(=O)O)c2c1` [Compound 3, 2-(1,3-Benzoxazol-2-yl)-6,8-dimethylquinoline-4-carboxylic acid] the Activity was “+ (activity<50% of an CFTR amplifier (Compound A)+VX-809 (3 uM) with compound at 10 uM and Compound A at 3 uM)”. With `Cc1cc(C)c2nc(-c3cc4ccccc4s3)nc(C(=O)O)c2c1` [Compound 4, 2-(1-Benzothiophen-2-yl)-6,8-dimethylquinazoline-4-carboxylic Acid] the Activity was “+ (activity<50% of an CFTR amplifier (Compound A)+VX-809 (3 uM) with compound at 10 uM and Compound A at 3 uM)”. With `Cc1cc(C)c2nc(-c3c(C)oc4ccccc34)cc(C(=O)O)c2c1` [Compound 5, 6,8-Dimethyl-2-(2-methyl-1-benzofuran-3-yl)quinoline-4-carboxylic acid] the Activity was “+ (activity<50% of an CFTR amplifier (Compound A)+VX-809 (3 uM) with compound at 10 uM and Compound A at 3 uM)”. In the case of `Cc1cc(C)c2nc(-c3cc4ccccc4o3)cc(C(=O)O)c2c1` [Compound 6, 2-(1-Benzofuran-2-yl)-6,8-dimethylquinoline-4-carboxylic acid], the Activity is reported as “+ (activity<50% of an CFTR amplifier (Compound A)+VX-809 (3 uM) with compound at 10 uM and Compound A at 3 uM)”. For `Cc1cc(C)c2nc(-c3cc4ccccc4o3)c(C)c(C(=O)O)c2c1` [Compound 7, 2-(1-Benzofuran-2-yl)-3,6,8-trimethylquinoline-4-carboxylic acid], the Activity was “+ (activity<50% of an CFTR amplifier (Compound A)+VX-809 (3 uM) with compound at 10 uM and Compound A at 3 uM)”. In the case of `Cc1cc(C)c2nc(-c3csc4ccccc34)cc(C(=O)O)c2c1` [Compound 8, 2-(1-Benzothiophen-3-yl)-6,8-dimethylquinoline-4-carboxylic acid], the Activity is reported as “+ (activity<50% of an CFTR amplifier (Compound A)+VX-809 (3 uM) with compound at 10 uM and Compound A at 3 uM)”. In the case of `Cc1cc(C)c2nc(-c3oc4ccccc4c3C)cc(C(=O)O)c2c1` [Compound 9, 6,8-dimethyl-2-(3-methyl-1-benzofuran-2-yl)quinoline-4-carboxylic acid], the Activity is reported as “++ (activity>50% of CFTR amplifier+VX-809 (3 uM) with compound at 10 uM and Compound A at 3 uM)”. For `Cc1ccc(C)c2c(C(=O)O)cc(-c3cc4ccccc4o3)nc12` [Compound 10, 2-(1-Benzofuran-2-yl)-5,8-dimethylquinoline-4-carboxylic acid], the Activity was “+ (activity<50% of an CFTR amplifier (Compound A)+VX-809 (3 uM) with compound at 10 uM and Compound A at 3 uM)”. With `COc1cc(C)c2nc(-c3cc4ccccc4o3)cc(C(=O)O)c2c1` [Compound 11, 2-(1-Benzofuran-2-yl)-6-methoxy-8-methylquinoline-4-carboxylic acid] the Activity was “+ (activity<50% of an CFTR amplifier (Compound A)+VX-809 (3 uM) with compound at 10 uM and Compound A at 3 uM)”. With `Cc1cc(Cl)cc2cc(C(=O)O)c(-c3cc4ccccc4o3)nc12` [Compound 12, 2-(1-Benzofuran-2-yl)-6-chloro-8-methylquinoline-3-carboxylic Acid] the Activity was “+ (activity<50% of an CFTR amplifier (Compound A)+VX-809 (3 uM) with compound at 10 uM and Compound A at 3 uM)”. For `Cc1ccc(C)c2c(C(=O)O)cc(-c3cc4ccccc4s3)nc12` [Compound 13, 2-(1-Benzothiophen-2-yl)-5,8-dimethylquinoline-4-carboxylic acid], the Activity was “+ (activity<50% of an CFTR amplifier (Compound A)+VX-809 (3 uM) with compound at 10 uM and Compound A at 3 uM)”. In the case of `COc1ccc(C)c2nc(-c3cc4ccccc4o3)cc(C(=O)O)c12` [Compound 14, 2-(1-Benzofuran-2-yl)-5-methoxy-8-methylquinoline-4-carboxylic acid], the Activity is reported as “+ (activity<50% of an CFTR amplifier (Compound A)+VX-809 (3 uM) with compound at 10 uM and Compound A at 3 uM)”. In the case of `Cc1ccc(OCc2ccccc2)c2c(C(=O)O)cc(-c3cc4ccccc4o3)nc12` [Compound 15, 2-(1-Benzofuran-2-yl)-5-(benzyloxy)-8-methylquinoline-4-carboxylic acid], the Activity is reported as “++ (activity>50% of CFTR amplifier+VX-809 (3 uM) with compound at 10 uM and Compound A at 3 uM)”. In the case of `Cc1cc(Cl)cc2c(C(=O)O)cc(-c3cc4ccccc4o3)nc12` [Compound 16, 2-(1-Benzofuran-2-yl)-6-chloro-8-methylquinoline-4-carboxylic acid], the Activity is reported as “+ (activity<50% of an CFTR amplifier (Compound A)+VX-809 (3 uM) with compound at 10 uM and Compound A at 3 uM)”. With `Cc1c(-c2cc(C(=O)O)c3cc(Cl)cc(C)c3n2)oc2ccccc12` [Compound 17, 6-Chloro-8-methyl-2-(3-methylbenzofuran-2-yl)quinoline-4-carboxylic acid] the Activity was “++ (activity>50% of CFTR amplifier+VX-809 (3 uM) with compound at 10 uM and Compound A at 3 uM)”. With `Cc1cc(C)c2nc(-c3sc4ccccc4c3C)cc(C(=O)O)c2c1` [Compound 18, 6,8-Dimethyl-2-(3-methylbenzo[b]thiophen-2-yl)quinoline-4-carboxylic acid] the Activity was “+ (activity<50% of an CFTR amplifier (Compound A)+VX-809 (3 uM) with compound at 10 uM and Compound A at 3 uM)”. `Cc1c(-c2cc(C(=O)O)c3cc(C(F)(F)F)cc(C)c3n2)oc2ccccc12` [Compound 19, 8-Methyl-2-(3-methyl-1-benzofuran-2-yl)-6-(trifluoromethyl)quinoline-4-carboxylic acid] was tested, and the Activity was “++ (activity>50% of CFTR amplifier+VX-809 (3 uM) with compound at 10 uM and Compound A at 3 uM)”. `Cc1c(-c2cc(C(=O)O)c3cc(F)cc(C)c3n2)oc2ccccc12` [Compound 20, 6-Fluoro-8-methyl-2-(3-methylbenzofuran-2-yl)quinoline-4-carboxylic acid] was tested, and the Activity was “++ (activity>50% of CFTR amplifier+VX-809 (3 uM) with compound at 10 uM and Compound A at 3 uM)”. With `Cc1c(-c2cc(C(=O)O)c3cc(Br)cc(C)c3n2)oc2ccccc12` [Compound 21, 6-bromo-8-methyl-2-(3-methyl-1-benzofuran-2-yl)quinoline-4-carboxylic acid] the Activity was “++ (activity>50% of CFTR amplifier+VX-809 (3 uM) with compound at 10 uM and Compound A at 3 uM)”. `Cc1c(-c2cc(C(=O)O)c3cc(C#N)cc(C)c3n2)oc2ccccc12` [Compound 22, 6-Cyano-8-methyl-2-(3-methyl-1-benzofuran-2-yl)quinoline-4-carboxylic Acid] was tested, and the Activity was “+ (activity<50% of an CFTR amplifier (Compound A)+VX-809 (3 uM) with compound at 10 uM and Compound A at 3 uM)”. In the case of `COc1cc(C)c2nc(-c3oc4ccccc4c3C)cc(C(=O)O)c2c1` [Compound 23, 6-Methoxy-8-methyl-2-(3-methyl-1-benzofuran-2-yl)quinoline-4-carboxylic acid], the Activity is reported as “++ (activity>50% of CFTR amplifier+VX-809 (3 uM) with compound at 10 uM and Compound A at 3 uM)”. In the case of `Cc1c(-c2cc(C(=O)O)c3cc(OCc4ccccc4)cc(C)c3n2)oc2ccccc12` [Compound 24, 6-(Benzyloxy)-8-methyl-2-(3-methyl-1-benzofuran-2-yl)quinoline-4-carboxylic acid], the Activity is reported as “++ (activity>50% of CFTR amplifier+VX-809 (3 uM) with compound at 10 uM and Compound A at 3 uM)”. In the case of `Cc1c(-c2cc(C(=O)O)c3cc(OCCO)cc(C)c3n2)oc2ccccc12` [Compound 25, 6-(2-Hydroxyethoxy)-8-methyl-2-(3-methyl-1-benzofuran-2-yl)quinoline-4-carboxylic Acid], the Activity is reported as “+ (activity<50% of an CFTR amplifier (Compound A)+VX-809 (3 uM) with compound at 10 uM and Compound A at 3 uM)”. In the case of `CCc1cc(C)c2nc(-c3oc4ccccc4c3C)cc(C(=O)O)c2c1` [Compound 26, 6-Ethyl-8-methyl-2-(3-methyl-1-benzofuran-2-yl)quinoline-4-carboxylic Acid], the Activity is reported as “++ (activity>50% of CFTR amplifier+VX-809 (3 uM) with compound at 10 uM and Compound A at 3 uM)”. For `Cc1c(-c2cc(C(=O)O)c3cc(C(C)(C)C)cc(C)c3n2)oc2ccccc12` [Compound 27, 6-tert-Butyl-8-methyl-2-(3-methyl-1-benzofuran-2-yl)quinoline-4-carboxylic acid], the Activity was “++ (activity>50% of CFTR amplifier+VX-809 (3 uM) with compound at 10 uM and Compound A at 3 uM)”.
